Peptide text beside a SMILES is read from it.
How the values were obtained:
[1] = system: Escherichia coli MCR-1 Af 45; settings: Mueller-Hinton broth II, 18-20 hours at 35° C.
How it was run: (§1)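 Standardized inocula (0.5 McFarland in saline, then diluted in MHII broth to approximately 5×10^5 CFU/mL) were exposed to two-fold dilution series of each peptide in the presence of polysorbate 80 (0.002% final).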

[2] = system: Klebsiella pneumoniae SSI3010; settings: SSI3010
How it was run: as §1

[3] = system: Escherichia coli ATCC 25922; settings: ATCC 25922
How it was run: as §1

[4] = system: human red blood cells (hRBC); assay: Hemolysis of human red blood cells; assay type: cell-based; settings: red cells of human, 1 h
How it was run: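 Percent hemolysis is OD540 of peptide-treated supernatant relative to water-lysed cells. Each peptide was tested at 200 μg/mL against 20% (v/v) washed human erythrocytes. Incubation was 1 h at 37 °C, 300 rpm.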

Row | SMILES | Escherichia coli MCR-1 Af 45 MIC [1] [µg/mL] | Klebsiella pneumoniae SSI3010 MIC [2] [µg/mL] | Escherichia coli ATCC 25922 MIC [3] [µg/mL] | Hemolysis at 0.2 g/L [4] [%]
1 | CC[C@H](C)[C@H](NC(=O)[C@@H]1C[C@@H](O)CN1C(=O)[C@@H](N)C(C)C)C(=O)N[C@@H](CCN)C(=O)N[C@@H](Cc1ccc(O)cc1)C(=O)N[C@@H]1C(=O)N[C@@H](CC(N)=O)C(=O)N[C@@H](CCCNC(=N)N)C(=O)N[C@@H](CCN)C(=O)N[C@@H]([C@@H](C)O)C(=O)N[C@H](CCN)C(=O)N[C@@H](CCCCN)C(=O)N[C@H](C(=O)N[C@@H](CCN)C(=O)N[C@@H](CCCNC(=N)N)C(=O)N[C@@H](Cc2ccc(O)cc2)C(=O)O)CSSC1(C)C [Example 158] (HELM PEPTIDE1{V.[Hyp].I.[Dab].Y.[Pen].N.R.[Dab].T.[NCC[C@@H](N[*:1])C(=O)[*:2]].K.C.[Dab].R.Y}$PEPTIDE1,PEPTIDE1,6:R3-13:R3$$$V2.0) | 0.125 | 0.5 | 0.125 | 0
2 | CC[C@H](C)[C@H](NC(=O)[C@@H]1C[C@@H](O)CN1C(=O)[C@@H](N)C(C)C)C(=O)N[C@@H](CCCCN)C(=O)N[C@@H](Cc1ccc(O)cc1)C(=O)N[C@@H]1C(=O)N[C@@H](CC(N)=O)C(=O)N[C@@H](CCCNC(=N)N)C(=O)N[C@@H](CCN)C(=O)N[C@@H]([C@@H](C)O)C(=O)N[C@H](CCN)C(=O)N[C@@H](CCCCN)C(=O)N[C@H](C(=O)N[C@@H](CCN)C(=O)N[C@@H](CCCNC(=N)N)C(=O)N[C@@H](Cc2ccc(O)cc2)C(=O)O)CSSC1(C)C [Example 159] (HELM PEPTIDE1{V.[Hyp].I.K.Y.[Pen].N.R.[Dab].T.[NCC[C@@H](N[*:1])C(=O)[*:2]].K.C.[Dab].R.Y}$PEPTIDE1,PEPTIDE1,6:R3-13:R3$$$V2.0) | 0.25 | 0.5 | 0.125 | 0
3 | CC[C@H](C)[C@H](NC(=O)[C@@H]1C[C@@H](O)CN1C(=O)[C@@H](N)C(C)C)C(=O)N[C@H](C(=O)N[C@@H](Cc1c[nH]c2ccccc12)C(=O)N[C@@H]1C(=O)N[C@@H](CC(N)=O)C(=O)N[C@@H](CCCNC(=N)N)C(=O)N[C@@H](CCN)C(=O)N[C@@H]([C@@H](C)O)C(=O)N[C@H](CCN)C(=O)N[C@@H](CCCCN)C(=O)N[C@H](C(=O)N[C@@H](CCN)C(=O)N[C@@H](CCCNC(=N)N)C(=O)N[C@@H](Cc2ccc(O)cc2)C(=O)O)CSSC1(C)C)[C@@H](C)O [Example 160] (HELM PEPTIDE1{V.[Hyp].I.T.W.[Pen].N.R.[Dab].T.[NCC[C@@H](N[*:1])C(=O)[*:2]].K.C.[Dab].R.Y}$PEPTIDE1,PEPTIDE1,6:R3-13:R3$$$V2.0) | 0.25 | 0.5 | 0.25 | 0
4 | CC[C@H](C)[C@H](NC(=O)[C@@H]1C[C@@H](O)CN1C(=O)[C@@H](N)C(C)C)C(=O)N[C@H](C(=O)N[C@@H](Cc1ccc(O)cc1)C(=O)N[C@@H]1C(=O)N[C@@H](C)C(=O)N[C@@H](CCCNC(=N)N)C(=O)N[C@@H](CCN)C(=O)N[C@@H]([C@@H](C)O)C(=O)N[C@H](CCN)C(=O)N[C@@H](CCCCN)C(=O)N[C@H](C(=O)N[C@@H](CCN)C(=O)N[C@@H](CCCNC(=N)N)C(=O)N[C@@H](Cc2ccc(O)cc2)C(=O)O)CSSC1(C)C)[C@@H](C)O [Example 161] (HELM PEPTIDE1{V.[Hyp].I.T.Y.[Pen].A.R.[Dab].T.[NCC[C@@H](N[*:1])C(=O)[*:2]].K.C.[Dab].R.Y}$PEPTIDE1,PEPTIDE1,6:R3-13:R3$$$V2.0) | 0.125 | 0.5 | 0.25 | 0
